# Test results: patent publication US7270949B2, “Fluorescence based T-type channel assay” (Neuromed Pharmaceuticals Ltd., priority 2003, dated 2007)
# Legend:
# [1] = tested on: α1 subunit of T-type calcium channels; assay: Fluorescence based assay for T-type modulators (FLUO-4, gramicidin/NMDG, KCl pulse); type: cell-based; conditions: transfected HEK 293 cells; various concentrations; FIG. 5; positive control
# Method: Mammalian cell lines stably expressing α1 subunit of T-type calcium channels were constructed by transfecting α1 calcium channel subunit DNA into HEK 293 cells and selecting for antibiotic resistance. Briefly, a full-length T-type calcium channel α1 subunit was subcloned into an expression vector with a selectable marker, pcDNA3 (InvitroGen, San Diego, Calif.). The vector was transfected into HEK 293 cells by lipofection and the cells incubated for 16-20 hours. The cells were fed nonselective medium and incubated for an additional 24 hours, then trypsinized and plated at low density in selective medium supplemented with Geneticin (G418) at a concentration of between 600 to 800 μg/ml. […] After growing up each isolated colony to confluency to establish cell lines, the expression of T-type calcium channels was determined by Northern and Southern blotting. […]
# Each well was then treated with fluorescence dye solution containing a mixture of 50 μg FLUO-4 AM (Molecular Probes, F-14201); 45.5 μl DMSO; 45.5 μl 20% Pluronic F-127 (Molecular Probes, P-6867) and 4 ml MKH buffer. […]
# To each well, EB buffer was added also containing DMSO at a concentration equal to that of the test compounds for negative controls, the known blocker penfluoridol at 2.5 μM for positive control, and test compounds (diluted in DMSO) for experimental wells. […] Background fluorescence was read in all wells. […]
# [2] = tested on: membrane potential of cells; assay: Membrane potential of cells with gramicidin, NMDG substituted for external sodium (FIG. 3); type: cell-based; conditions: 5 μg/ml gramicidin, absence of external sodium (NMDG)
# Method: As shown, when 5 μg/ml gramicidin is added in the absence of external sodium, the membrane potential decreases to about −70 mV.
molecule,measurement,setting,value
OC1(c2ccc(Cl)c(C(F)(F)F)c2)CCN(CCCC(c2ccc(F)cc2)c2ccc(F)cc2)CC1 [penfluoridol],blocking calcium ion transport (fluorescence),[1],successful in blocking calcium ion transport
gramicidin,membrane potential,[2],about −70 mV
